Laboratory results taken from PubChem BioAssay (NCI).
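Assay format: 96-well plates, 48-hour exposure. GI50 marks 50% less growth. TGI is the concentration that stops growth completely.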

How the values were obtained:
Assay in all cases: growth of human tumour cells (NCI), 48 h
[1] = test system: CCRF-CEM leukemia
[2] = test system: DU-145 prostate
[3] = test system: HCT-15 colon
[4] = test system: HL-60(TB) leukemia
[5] = test system: MOLT-4 leukemia
[6] = test system: NCI-H23 lung
[7] = test system: OVCAR-4 ovarian
[8] = test system: SF-268 CNS
[9] = test system: SK-MEL-2 melanoma
[10] = test system: UO-31 renal

Compound: CNC(=O)c1ccc(N2C(=S)N(c3cnc(C#N)c(C(F)(F)F)c3)C(=O)C23CCC3)cc1F
- GI50 [1]: > 100000 nM
- TGI [1]: > 100 µM
- GI50 [2]: > 100 µM
- TGI [2]: > 100 µM
- GI50 [3]: > 100 µM
- TGI [3]: > 100 µM
- GI50 [4]: 63900 nM
- TGI [4]: > 100 µM
- GI50 [5]: 61.9 µM
- TGI [5]: > 100 µM
- GI50 [6]: > 100 µM
- TGI [6]: > 100 µM
- GI50 [7]: > 79.2 µM
- TGI [7]: > 100 µM
- GI50 [8]: > 100 µM
- TGI [8]: > 100 µM
- GI50 [9]: > 100 µM
- TGI [9]: > 100 µM
- GI50 [10]: > 72.1 µM
- TGI [10]: > 100 µM

Compound: O=C(O)CSc1n[nH]c(=O)[nH]c1=O
- TGI [1]: > 100 µM
- TGI [2]: > 100 µM
- TGI [3]: > 100 µM
- TGI [4]: > 100 µM
- TGI [5]: > 100 µM
- TGI [6]: > 100 µM
- TGI [7]: > 100 µM
- TGI [8]: > 100 µM
- TGI [9]: > 100 µM
- TGI [10]: > 100 µM

Compound: COc1ccc(C2(Cl)c3ccccc3N(c3ccccc3)c3ccccc32)cc1
- GI50 [1]: 1990 nM
- TGI [1]: 13.8 µM
- GI50 [2]: 0.536 µM
- TGI [2]: 2.04 µM
- GI50 [3]: 0.909 µM
- TGI [3]: 10.8 µM
- GI50 [4]: 542 nM
- TGI [4]: 4.25 µM
- GI50 [5]: 1.83 µM
- TGI [5]: 11 µM
- GI50 [6]: 0.329 µM
- TGI [6]: 1.81 µM
- GI50 [7]: 0.447 µM
- TGI [7]: 2.81 µM
- GI50 [8]: 0.758 µM
- TGI [8]: 2.88 µM
- GI50 [9]: 0.377 µM
- TGI [9]: 1.85 µM
- GI50 [10]: 0.846 µM
- TGI [10]: 10.8 µM

Compound: CCOC(=O)C1=CCCC[C@H]1S(=O)(=O)Nc1ccc(F)cc1Cl
- GI50 [1]: 21400 nM
- TGI [1]: 84.9 µM
- GI50 [2]: 25.4 µM
- TGI [2]: > 100 µM
- GI50 [3]: 20.3 µM
- TGI [3]: > 100 µM
- GI50 [4]: 15700 nM
- TGI [4]: 47.9 µM
- GI50 [5]: 27.3 µM
- TGI [5]: 92.2 µM
- GI50 [6]: 26.6 µM
- TGI [6]: > 100 µM
- GI50 [7]: 31.2 µM
- TGI [7]: > 100 µM
- GI50 [8]: 24.6 µM
- TGI [8]: > 100 µM
- GI50 [9]: 21 µM
- TGI [9]: 83.8 µM
- GI50 [10]: 20.8 µM
- TGI [10]: > 100 µM

Compound: C=C(c1ccc(OC)c(/C=C/C(=O)c2ccc3c(c2)OCO3)c1)c1cc(OC)c(OC)c(OC)c1
- GI50 [1]: 916 nM
- TGI [1]: > 100 µM
- GI50 [2]: 5.54 µM
- TGI [2]: > 100 µM
- GI50 [4]: 2670 nM
- TGI [4]: > 100 µM
- GI50 [5]: 3.08 µM
- TGI [5]: > 100 µM
- GI50 [6]: 3.2 µM
- TGI [6]: > 100 µM
- GI50 [7]: 3.93 µM
- TGI [7]: > 100 µM
- GI50 [8]: 3.18 µM
- TGI [8]: > 100 µM
- GI50 [9]: 4.25 µM
- TGI [9]: > 100 µM
- GI50 [10]: 3.1 µM
- TGI [10]: > 100 µM

Compound: O=C1NC(=C(Cl)Cl)/C(=N/S(=O)(=O)N2CCCCC2)N1
- GI50 [1]: 2190 nM
- TGI [1]: 4.92 µM
- GI50 [2]: 3.54 µM
- TGI [2]: 12.2 µM
- GI50 [3]: 1.82 µM
- TGI [3]: 3.91 µM
- GI50 [4]: 1860 nM
- TGI [4]: 4.52 µM
- GI50 [6]: 2.2 µM
- TGI [6]: 5 µM
- GI50 [7]: 1.8 µM
- TGI [7]: 3.47 µM
- GI50 [8]: 2.43 µM
- TGI [8]: 6.53 µM
- GI50 [9]: 2.92 µM
- TGI [9]: 7.72 µM
- GI50 [10]: 2.87 µM
- TGI [10]: 12.4 µM

Compound: CCOC(=O)c1cc(C(=O)c2ccc(OC)cc2)n2ccc(/C=C/c3cc[n+](CC(=O)c4ccc(OC)cc4)cc3)cc12
- GI50 [2]: 2.05 µM
- TGI [2]: 5.16 µM
- GI50 [3]: 5.67 µM
- TGI [3]: > 100 µM
- GI50 [4]: 1780 nM
- TGI [4]: 4.24 µM
- GI50 [5]: 1.91 µM
- TGI [5]: 5.53 µM
- GI50 [6]: 2.22 µM
- TGI [6]: 5.5 µM
- GI50 [7]: 1.26 µM
- TGI [7]: 2.94 µM
- GI50 [8]: 2.09 µM
- TGI [8]: 4.52 µM
- GI50 [10]: > 100 µM
- TGI [10]: > 100 µM

Compound: Cc1cnc2n1S(=O)(=O)c1cc(C(=O)Nc3cccc4nsnc34)c(Cl)cc1S2
- GI50 [2]: 25.5 µM
- TGI [2]: 67.9 µM
- GI50 [3]: 38.1 µM
- TGI [3]: > 100 µM
- GI50 [4]: 24700 nM
- TGI [4]: > 100 µM
- GI50 [5]: 45.1 µM
- TGI [5]: > 100 µM
- GI50 [6]: 18 µM
- TGI [6]: 32.8 µM
- GI50 [7]: 27.8 µM
- TGI [7]: 75.4 µM
- GI50 [8]: 22.5 µM
- TGI [8]: 55.6 µM
- GI50 [9]: 44.2 µM
- TGI [9]: > 100 µM
- GI50 [10]: 22.9 µM
- TGI [10]: 51.8 µM

Compound: COc1ccc(Nc2nc3cc(N)cc(N)c3nc2-c2ccccc2)cc1
- GI50 [1]: 12000 nM
- TGI [1]: > 100 µM
- GI50 [2]: 39.3 µM
- TGI [2]: > 100 µM
- GI50 [3]: 15.3 µM
- TGI [3]: 45 µM
- GI50 [4]: 34400 nM
- TGI [4]: > 100 µM
- GI50 [6]: 12.5 µM
- TGI [6]: 25.3 µM
- GI50 [7]: 10.4 µM
- TGI [7]: 22.1 µM
- GI50 [8]: 13 µM
- TGI [8]: 30.6 µM
- GI50 [9]: 15.6 µM
- TGI [9]: 31.4 µM
- GI50 [10]: 16.6 µM
- TGI [10]: 34.2 µM

Compound: COc1ccc(C(=O)C(CN(C)C)CN(C)C)cc1
- GI50 [1]: 1390 nM
- TGI [1]: 5.13 µM
- GI50 [2]: 3.21 µM
- TGI [2]: 9.93 µM
- GI50 [3]: 2.47 µM
- TGI [3]: 6.85 µM
- GI50 [4]: 116 nM
- TGI [4]: 1.87 µM
- GI50 [6]: 14.2 µM
- TGI [6]: 41 µM
- GI50 [8]: 13.7 µM
- TGI [8]: 42.3 µM
- GI50 [9]: 16.7 µM
- TGI [9]: 36.8 µM
- GI50 [10]: 1.37 µM
- TGI [10]: 2.91 µM

Compound: CNC(=O)c1c(C)oc2cc(Oc3ncnc4cc(OC)c(OC)cc34)ccc12
- GI50 [1]: > 100000 nM
- TGI [1]: > 100 µM
- GI50 [2]: > 100 µM
- TGI [2]: > 100 µM
- GI50 [3]: > 100 µM
- TGI [3]: > 100 µM
- GI50 [4]: > 100000 nM
- TGI [4]: > 100 µM
- GI50 [5]: > 100 µM
- TGI [5]: > 100 µM
- GI50 [6]: > 100 µM
- TGI [6]: > 100 µM
- GI50 [7]: > 100 µM
- TGI [7]: > 100 µM
- GI50 [8]: > 100 µM
- TGI [8]: > 100 µM
- GI50 [9]: > 100 µM
- TGI [9]: > 100 µM

Compound: O=C(O)CCNCC(=O)O
- TGI [1]: > 100 µM
- TGI [2]: > 100 µM
- TGI [3]: > 100 µM
- TGI [4]: > 100 µM
- TGI [5]: > 100 µM
- TGI [6]: > 100 µM
- TGI [8]: > 100 µM
- TGI [9]: > 100 µM
- TGI [10]: > 100 µM
